From patent US20250099426A1, “Indolium Compounds for Treating Cancer” (Emory University, priority 2022, published 2025)
Entries after “also recorded” stand apart in the source; their conditions may differ.

Legend:
[1] = test system: LM36R, a vemurafenib-resistant melanoma cell line; experiment: In vivo LM36R xenograft model, tumor volume; set-up: species or system athymic Nu/Nu nude male mice; settings: LM36R 1×10^6 cells/mouse, IP three times a week, 3 mg/kg/week, 4 weeks, N=5/group, p-value=0.03 at week 4
Protocol: Mice were inoculated with LM36R, a vemurafenib-resistant melanoma cell line, at 1×10^6 cells/mouse. Mice were then treated with Indolium via IP administration three times a week at a concentration of 3 mg/kg/week. Tumor growth was compared to control vehicle (sterile water). […] (N=5/group, p-value=0.03) at week 4.
In order to investigate Indolium 1 activity against LM36R, vemurafenib-resistant melanoma cell line, in vivo, 10 mice were inoculated at 1×10^6 cells/mouse. Mice were then treated with indolium 1 via IP administration three times a week at a concentration of 3 mg/kg/week. […] (FIG. 2).
The xenograft model was developed. A LM36R cell suspension in growth medium was inoculated at 1×10^6 cells/mouse in the right flank of athymic Nu/Nu nude male mice (n=5 per group). MPIB was prepared by dissolving 3.75 mg into 1 mL of ethanol 7. This solution (100 μL) was then diluted to the final concentration in 1 mL of 20% soy-fat Intralipid™ prior to each injection and vortexed vigorously. […] MPIB treatment was initiated on the second day after the tumor cell injection, and the tumor volume as well as the weight of the animals were recorded weekly thereafter. Animals were sacrificed and tumors were harvested after tumor volumes reached experimental endpoint as determined by IACUC protocol.

[2] = set-up: species or system mice; settings: mouse, in vivo
Protocol: The ability to inhibit the growth of vemurafenib resistant melanoma in vivo is unique.
The xenograft model was developed. A LM36R cell suspension in growth medium was inoculated at 1×10^6 cells/mouse in the right flank of athymic Nu/Nu nude male mice (n=5 per group). MPIB was prepared by dissolving 3.75 mg into 1 mL of ethanol 7. This solution (100 μL) was then diluted to the final concentration in 1 mL of 20% soy-fat Intralipid™ prior to each injection and vortexed vigorously. Vehicle control (ethanol in Intralipid) or MPIB was administered intraperitoneally three times a week at 3 mg/kg/week. MPIB treatment was initiated on the second day after the tumor cell injection, and the tumor volume as well as the weight of the animals were recorded weekly thereafter. Animals were sacrificed and tumors were harvested after tumor volumes reached experimental endpoint as determined by IACUC protocol.

LM36R cells = experiment: Proliferation assay / cell viability (AlamarBlue); assay type: cell-based; settings: Indolium 1 1 μM, 24 hours
Protocol: Lanes: 1) Control 2) Indolium 1 (1 μM) 3) MEK Inhibitor U0126 (10 μM) 4) Akt Inhibitor II (10 μM) 5) Indolium 1 (1 μM)+MEK Inhibitor U0126 (10 μM) 6) Indolium 1+Akt Inhibitor II (10 μM). *=Statistically lower cell viability compared to control (p<0.05). **=Statistically lower cell viability compared to control and statistically higher cell viability than Indolium 1 treatment (lane 2) alone. Inhibition of MAPK and Akt reverses cell death caused by Indolium 1.
The induction of MAPK and Akt seem to contribute to reduction in tumor size observed in mice treated with Indolium 1. In a cell viability assay, cells were treated with Indolium 1, MEK inhibitor (inhibiting the MAPK signaling pathway directly upstream of MAPK), and Akt inhibitor. Cells were also treated with a combination of Indolium 1 and each inhibitor. […]
A cell proliferation assay was used to study the effect of Indolium 1 in vitro. […] After 4 hours, the plate was read following manufacturer's instructions and the data was processed using Softmax™ Pro software (Molecular Devices). An unpaired two-tailed Student's t-test was performed to determine the significant difference between the control and each treatment group, along with between the Indolium 1 only versus Indolium 1 plus MEK/Akt inhibitor, with significance determined at p<0.05.

Rb [3] = experiment: Western blotting of treated LM36R cells, Rb; assay type: cell-based; settings: 0.1-5 μM Indolium 1, 24 hours
Protocol: (§1) LM36R cells were grown in six T75 flasks. Upon reaching 70% confluence, cell media was replaced with media with concentrations of 0, 0.1, 0.5, 1, 2.5, and 5 μM Indolium 1. After 24 hours, cells were lysed in RIPA buffer (25 mM Tris-HCl, 150 mM NaCl, 1% NP-40, 1% sodium deoxycholate, 0.1% sodium dodecyl sulfate, pH 7.6) supplemented with HALT™ protease phosphatase inhibitor cocktails and 0.5 M EDTA solution. Cell lysates incubated on ice for 30 minutes, and then centrifuged at 16,000×g at 4° C. for 20 minutes. Protein concentration was determined using the Pierce BCA Protein Assay Kit™ and then normalized. NuPage™ LDS Sample Buffer (4×) and beta-mercaptoethanol were added to the samples, which were subsequently boiled. Sample protein (40 μg) of were loaded into each well of NuPAGE™ 4-12% Bis-Tris precast gels in MOPS buffer against Precision Plus™ Protein Dual Color Standards. Proteins were transferred onto polyvinylidene difluoride membrane using Transblot Turbo™ system. Membrane was blocked for 1 hour at room temperature in 5% non-fat dry milk in 0.1% Tween-Tris-Buffered Saline and probed with Rb (#PA5-27215) pMAPK (9101S), pAkt (#4060S), and beta-tubulin (#2146S) antibodies at 1:1000 dilutions in 5% bovine serum albumin at 4° C. overnight. […] Antibody signal was detected using SuperSignal™ West Pico chemiluminescence substrate with Medical X-Ray Film and digitally scanned.

pMAPK = experiment: Western blotting of treated LM36R cells, pMAPK; assay type: cell-based; settings: 0.1-5 μM Indolium 1, 24 hours
Protocol: as §1

pAkt = experiment: Western blotting of treated LM36R cells, pAkt; assay type: cell-based; settings: 0.1-5 μM Indolium 1, 24 hours
Protocol: as §1

EphA3 [4] = experiment: ATAC-seq of LM36R tumors, chromatin accessibility; assay type: in vivo; settings: treated versus vehicle LM36R tumors in mice
Protocol: To gain insights into the mechanisms by which Indolium 1 caused decrease in LM36R tumor volume, we analyzed possible changes in chromatin structure in the tumor cells using ATAC-seq. […] To further explore the effects that Indolium 1 has on cells which could have led to tumor size reduction, LM36R cells were treated with varying concentrations of Indolium 1. […] Beta-tubulin was used to confirm even protein concentrations in each sample.
Experiments reported herein indicate that small molecule, Indolium 1 has activity against vemurafenib resistant BRAF mutant melanoma. Vehicle versus Indolium treated tumors in mice were analyzed for potential biomarkers and for insight into the mechanism of Indolium 1 in vivo. […] EphA3 is a receptor tyrosine kinase which binds ligands ephrinA5 and […]. […] First, inactivating mutations in EphA3 are often found in high grade malignancies. Second, activation of wild type EphA3 causes downregulation of Akt, which has previously been implicated in melanoma progression. […] Finally, a novel antibody based therapeutic directed against EphA3, and therapies that induce EphA3 could sensitize melanoma to anit-EphA3 antibodies.

EphA3 [5] = experiment: Immunohistochemistry of in vivo LM36R tumor model, EphA3; set-up: species or system mice; settings: treated LM36R tumor tissue versus controls
Protocol: (§2) Tumor samples were resected and embedded in formalin, processed, and stained. Formalin-fixed and paraffin-embedded tissue sections from each group were cut to a 5-μm thickness and air-dried. Processing was performed using Ventana DISCOVERY™ Ultra automated immunohistochemistry stainer. Slides were deparaffinized with EZ-Prep (#05279771001) and then were antigen retrieved for 64 minutes with CC1 reagent (#950-500). Rabbit anti-Eph receptor A3 (EphA3) antibody (ab126261) diluted at 1:50, Rabbit anti-Nkx3.2 (#PA5-21108 diluted at 1:500) and mouse anti-Rbl antibody (554136) diluted at 1:100 were applied and incubated for 40 minutes. For the first two stains, DISCOVERY™ OmniMap anti-Rb HRP was applied and incubated for 12 minutes, and the detection was completed in combination with DISCOVERY™ ChromoMap DAB kit for anti-EphA3 antibody and DISCOVERY™ Red kit for anti-Nkx3.2 anti-body, as per manufacturer recommendations. For the Rbl stain, DISCOVERY™ OmniMap anti-mouse HRP was applied and incubated for 12 minutes, and the detection was completed in combination with DISCOVERY™ ChromoMap DAB kit. Slides were counterstained with hematoxylin for 8 minutes. Slides were then dehydrated, cover-slipped, and evaluated by light microscopy. Whole imaging was performed.

Nkx3.2 = experiment: Immunohistochemistry of in vivo LM36R tumor model, Nkx3.2; set-up: species or system mice; settings: treated LM36R tumor versus control
Protocol: as §2

Rb [6] = experiment: Immunohistochemistry of in vivo LM36R tumor model, Rb; set-up: species or system mice; settings: treated LM36R tumor tissue versus control tissue
Protocol: as §2

## 3-(bis(4-(diethylamino)phenyl) methylene)-1-methyl-2-phenyl-3H-indol-1-ium [Indolium 1]
[1]
  tumor volume versus control: potent in vivo activity against LM36R; also recorded: significant reduction of tumor volume; also recorded: reduced tumor volume over 4 weeks
[2]
  tolerability: well tolerated
LM36R cells
  relative cell viability: cell death
Rb [3]
  levels of Rb (Western blot): decreased with increasing concentrations
pMAPK
  pMAPK levels (Western blot): induction of phosphorylated MAP kinase
pAkt
  pAkt levels (Western blot): induction
EphA3 [4]
  EphA3 chromatin accessibility (ATAC-seq): one of the most upregulated genes in terms of chromatin accessibility
EphA3 [5]
  EphA3 immunohistochemical staining: more positivity for EPHA3 compared to controls
Nkx3.2
  Nkx3.2 immunohistochemical staining: upregulated Nkx3.2 expression
Rb [6]
  Rb immunohistochemical staining: less Rb compared with control tissue
